Measured values published in the kinase profiling compilation of Christmann-Franck et al. (2016).

Assays:
Test in all cases: KINOMEscan competition binding
Settings in all cases: compound 10.0 µM
CSNK2A2 (human) = CSNK2A2 (human) (UniProt P19784)
BRSK1 (human) = BRSK1 (human) (UniProt Q8TDC3)
STK3 (human) = STK3 (human) (UniProt Q13188)
PRPF4B (human) = PRPF4B (human) (UniProt Q13523)
[1] = target: JAK2 JH1 catalytic (human) (UniProt O60674)
STK4 (human) = STK4 (human) (UniProt Q13043)
FYN (human) = FYN (human) (UniProt P06241)
NUAK2 (human) = NUAK2 (human) (UniProt Q9H093)
VRK2 (human) = VRK2 (human) (UniProt Q86Y07)
TNIK (human) = TNIK (human) (UniProt Q9UKE5)
CSNK1G3 (human) = CSNK1G3 (human) (UniProt Q9Y6M4)
HCK (human) = HCK (human) (UniProt P08631)
BLK (human) = BLK (human) (UniProt P51451)
RIOK3 (human) = RIOK3 (human) (UniProt O14730)
[2] = tested on: EGFR (human), P00533 [L858R]
AKT2 (human) = AKT2 (human) (UniProt P31751)
CDK4 CCND1 (human) = CDK4 CCND1 (human) (UniProt P11802+P24385)
AAK1 (human) = AAK1 (human) (UniProt Q2M2I8)
RIOK2 (human) = RIOK2 (human) (UniProt Q9BVS4)
[3] = tested on: FLT3 (human), P36888 [K663Q]
MAPK10 (human) = MAPK10 (human) (UniProt P53779)
FGR (human) = FGR (human) (UniProt P09769)
NEK3 (human) = NEK3 (human) (UniProt P51956)
MAP3K13 (human) = MAP3K13 (human) (UniProt O43283)
NEK7 (human) = NEK7 (human) (UniProt Q8TDX7)
STK32A (human) = STK32A (human) (UniProt Q8WU08)
[4] = tested on: RET (human), P07949 [V804M]
NEK9 (human) = NEK9 (human) (UniProt Q8TD19)
SIK2 (human) = SIK2 (human) (UniProt Q9H0K1)
PRKAA2 (human) = PRKAA2 (human) (UniProt P54646)
PRKD3 (human) = PRKD3 (human) (UniProt O94806)
CDK18 (human) = CDK18 (human) (UniProt Q07002)
DCLK2 (human) = DCLK2 (human) (UniProt Q8N568)
MAP4K5 (human) = MAP4K5 (human) (UniProt Q9Y4K4)
BRAF (human) = BRAF (human) (UniProt P15056)
RPS6KA6 KD2 (human) = RPS6KA6 KD2 (human) (UniProt Q9UK32)
EPHA2 (human) = EPHA2 (human) (UniProt P29317)
PAK3 (human) = PAK3 (human) (UniProt O75914)
[5] = target: TYK2 JH2 pseudokinase (human) (UniProt P29597)
[6] = tested on: EIF2AK4 KD2 (human), Q9P2K8 [S808G]
TNK1 (human) = TNK1 (human) (UniProt Q13470)

Chain of STK4 (human) (Q13043 whole entry, looked up): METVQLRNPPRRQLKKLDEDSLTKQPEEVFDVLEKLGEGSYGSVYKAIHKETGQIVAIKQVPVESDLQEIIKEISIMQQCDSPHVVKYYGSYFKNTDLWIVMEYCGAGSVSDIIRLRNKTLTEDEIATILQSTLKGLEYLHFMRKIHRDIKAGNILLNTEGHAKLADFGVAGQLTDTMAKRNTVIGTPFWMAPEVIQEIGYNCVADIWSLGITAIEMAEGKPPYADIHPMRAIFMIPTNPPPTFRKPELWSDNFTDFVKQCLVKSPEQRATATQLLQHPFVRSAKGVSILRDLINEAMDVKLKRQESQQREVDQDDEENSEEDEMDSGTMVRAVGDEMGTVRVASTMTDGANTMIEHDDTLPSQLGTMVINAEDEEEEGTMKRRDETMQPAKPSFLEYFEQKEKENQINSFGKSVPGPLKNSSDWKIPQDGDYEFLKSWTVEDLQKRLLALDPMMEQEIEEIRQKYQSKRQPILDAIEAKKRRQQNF
Chain of AAK1 (human) (Q2M2I8 whole entry, looked up): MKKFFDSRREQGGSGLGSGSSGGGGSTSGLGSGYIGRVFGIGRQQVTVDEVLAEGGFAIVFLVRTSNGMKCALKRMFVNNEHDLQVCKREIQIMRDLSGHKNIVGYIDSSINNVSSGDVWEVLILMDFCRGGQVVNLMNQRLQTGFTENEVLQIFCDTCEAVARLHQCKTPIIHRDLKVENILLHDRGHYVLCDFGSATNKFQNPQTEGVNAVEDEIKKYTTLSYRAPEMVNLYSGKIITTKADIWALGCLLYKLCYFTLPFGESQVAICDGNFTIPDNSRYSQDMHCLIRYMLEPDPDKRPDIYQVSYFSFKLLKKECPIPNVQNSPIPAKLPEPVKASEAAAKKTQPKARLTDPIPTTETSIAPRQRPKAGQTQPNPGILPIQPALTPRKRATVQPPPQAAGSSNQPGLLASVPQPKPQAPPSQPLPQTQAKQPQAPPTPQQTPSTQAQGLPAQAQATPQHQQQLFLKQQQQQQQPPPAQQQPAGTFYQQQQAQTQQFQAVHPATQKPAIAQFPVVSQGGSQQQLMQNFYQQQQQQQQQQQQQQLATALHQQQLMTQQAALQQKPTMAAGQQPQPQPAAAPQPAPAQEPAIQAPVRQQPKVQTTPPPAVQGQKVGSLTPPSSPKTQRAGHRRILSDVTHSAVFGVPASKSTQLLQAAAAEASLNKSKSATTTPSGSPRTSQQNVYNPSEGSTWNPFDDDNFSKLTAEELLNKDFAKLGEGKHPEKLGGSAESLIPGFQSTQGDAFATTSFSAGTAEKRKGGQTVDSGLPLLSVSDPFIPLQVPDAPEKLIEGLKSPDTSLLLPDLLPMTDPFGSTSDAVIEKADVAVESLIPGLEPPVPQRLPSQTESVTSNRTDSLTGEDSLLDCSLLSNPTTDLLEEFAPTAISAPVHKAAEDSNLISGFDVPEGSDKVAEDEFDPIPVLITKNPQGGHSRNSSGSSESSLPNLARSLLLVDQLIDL
Chain of CDK18 (human) (Q07002 whole entry, looked up): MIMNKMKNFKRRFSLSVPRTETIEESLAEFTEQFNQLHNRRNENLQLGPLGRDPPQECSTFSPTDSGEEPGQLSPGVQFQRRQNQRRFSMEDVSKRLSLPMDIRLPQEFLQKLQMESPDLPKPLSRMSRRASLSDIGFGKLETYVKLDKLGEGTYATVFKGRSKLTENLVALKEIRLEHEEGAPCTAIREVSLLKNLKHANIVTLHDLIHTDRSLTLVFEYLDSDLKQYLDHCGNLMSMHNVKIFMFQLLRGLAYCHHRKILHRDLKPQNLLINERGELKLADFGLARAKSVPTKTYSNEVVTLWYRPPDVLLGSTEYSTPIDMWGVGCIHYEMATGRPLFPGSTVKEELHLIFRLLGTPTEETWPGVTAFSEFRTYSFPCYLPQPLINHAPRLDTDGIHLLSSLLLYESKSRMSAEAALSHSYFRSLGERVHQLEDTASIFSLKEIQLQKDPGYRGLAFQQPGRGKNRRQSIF
Chain of FYN (human) (P06241 whole entry, looked up): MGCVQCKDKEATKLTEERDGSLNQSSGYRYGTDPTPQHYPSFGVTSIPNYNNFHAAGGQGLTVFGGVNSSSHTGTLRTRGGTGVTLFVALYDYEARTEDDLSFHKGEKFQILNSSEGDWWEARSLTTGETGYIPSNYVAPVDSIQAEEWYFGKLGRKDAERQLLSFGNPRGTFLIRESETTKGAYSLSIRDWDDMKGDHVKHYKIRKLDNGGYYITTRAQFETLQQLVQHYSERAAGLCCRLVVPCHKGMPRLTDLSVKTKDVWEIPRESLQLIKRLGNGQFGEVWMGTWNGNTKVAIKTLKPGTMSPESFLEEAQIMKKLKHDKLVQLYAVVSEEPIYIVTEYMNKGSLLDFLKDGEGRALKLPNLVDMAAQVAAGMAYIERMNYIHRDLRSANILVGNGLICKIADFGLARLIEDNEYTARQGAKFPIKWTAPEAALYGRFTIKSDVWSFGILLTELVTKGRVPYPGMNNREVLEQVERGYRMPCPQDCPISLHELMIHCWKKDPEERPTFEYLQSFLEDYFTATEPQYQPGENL
Chain of EIF2AK4 KD2 (human), Q9P2K8 [S808G] (Q9P2K8 whole entry S808G, looked up): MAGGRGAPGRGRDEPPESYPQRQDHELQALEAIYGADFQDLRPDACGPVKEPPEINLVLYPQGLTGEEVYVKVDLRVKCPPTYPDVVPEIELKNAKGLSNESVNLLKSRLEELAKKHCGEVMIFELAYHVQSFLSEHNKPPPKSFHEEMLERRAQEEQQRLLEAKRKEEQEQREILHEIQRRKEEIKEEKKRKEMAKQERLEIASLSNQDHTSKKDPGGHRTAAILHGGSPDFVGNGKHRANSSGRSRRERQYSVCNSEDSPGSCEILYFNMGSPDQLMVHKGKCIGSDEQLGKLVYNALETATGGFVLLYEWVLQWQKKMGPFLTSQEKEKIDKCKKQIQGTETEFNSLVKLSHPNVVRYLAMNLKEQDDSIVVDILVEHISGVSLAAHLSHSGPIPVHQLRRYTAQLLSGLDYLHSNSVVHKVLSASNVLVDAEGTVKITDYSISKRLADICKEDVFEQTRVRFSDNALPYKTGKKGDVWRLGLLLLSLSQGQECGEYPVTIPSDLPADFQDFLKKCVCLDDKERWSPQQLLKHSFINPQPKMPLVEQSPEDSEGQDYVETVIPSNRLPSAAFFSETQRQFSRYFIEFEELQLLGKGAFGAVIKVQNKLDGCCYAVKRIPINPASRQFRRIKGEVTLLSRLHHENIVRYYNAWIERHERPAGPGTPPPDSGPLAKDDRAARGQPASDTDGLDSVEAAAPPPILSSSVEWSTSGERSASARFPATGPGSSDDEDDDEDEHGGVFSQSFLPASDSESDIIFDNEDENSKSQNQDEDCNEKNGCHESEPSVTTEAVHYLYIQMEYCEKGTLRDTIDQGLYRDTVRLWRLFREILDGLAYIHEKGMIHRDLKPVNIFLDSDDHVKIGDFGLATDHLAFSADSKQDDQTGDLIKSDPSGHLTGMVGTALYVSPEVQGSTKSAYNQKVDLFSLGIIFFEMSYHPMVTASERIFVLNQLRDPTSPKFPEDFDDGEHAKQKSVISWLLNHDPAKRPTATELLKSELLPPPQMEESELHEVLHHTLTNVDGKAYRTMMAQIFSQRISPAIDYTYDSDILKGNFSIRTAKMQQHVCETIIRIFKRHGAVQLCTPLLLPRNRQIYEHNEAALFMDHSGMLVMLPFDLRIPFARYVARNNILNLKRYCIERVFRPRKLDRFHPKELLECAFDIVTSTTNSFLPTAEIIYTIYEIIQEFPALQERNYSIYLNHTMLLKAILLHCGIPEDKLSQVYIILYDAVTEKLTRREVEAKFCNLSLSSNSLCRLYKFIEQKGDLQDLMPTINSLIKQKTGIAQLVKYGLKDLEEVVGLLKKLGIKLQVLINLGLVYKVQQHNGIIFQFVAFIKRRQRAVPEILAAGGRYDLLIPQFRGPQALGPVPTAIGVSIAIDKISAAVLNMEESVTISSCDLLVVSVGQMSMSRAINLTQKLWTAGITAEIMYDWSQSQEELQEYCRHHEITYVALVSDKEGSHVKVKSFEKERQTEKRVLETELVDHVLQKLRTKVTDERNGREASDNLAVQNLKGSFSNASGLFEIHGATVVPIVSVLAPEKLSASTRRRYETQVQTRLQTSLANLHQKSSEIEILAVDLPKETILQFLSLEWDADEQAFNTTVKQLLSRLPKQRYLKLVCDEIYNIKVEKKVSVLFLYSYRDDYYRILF
Chain of BRAF (human) (P15056 whole entry, looked up): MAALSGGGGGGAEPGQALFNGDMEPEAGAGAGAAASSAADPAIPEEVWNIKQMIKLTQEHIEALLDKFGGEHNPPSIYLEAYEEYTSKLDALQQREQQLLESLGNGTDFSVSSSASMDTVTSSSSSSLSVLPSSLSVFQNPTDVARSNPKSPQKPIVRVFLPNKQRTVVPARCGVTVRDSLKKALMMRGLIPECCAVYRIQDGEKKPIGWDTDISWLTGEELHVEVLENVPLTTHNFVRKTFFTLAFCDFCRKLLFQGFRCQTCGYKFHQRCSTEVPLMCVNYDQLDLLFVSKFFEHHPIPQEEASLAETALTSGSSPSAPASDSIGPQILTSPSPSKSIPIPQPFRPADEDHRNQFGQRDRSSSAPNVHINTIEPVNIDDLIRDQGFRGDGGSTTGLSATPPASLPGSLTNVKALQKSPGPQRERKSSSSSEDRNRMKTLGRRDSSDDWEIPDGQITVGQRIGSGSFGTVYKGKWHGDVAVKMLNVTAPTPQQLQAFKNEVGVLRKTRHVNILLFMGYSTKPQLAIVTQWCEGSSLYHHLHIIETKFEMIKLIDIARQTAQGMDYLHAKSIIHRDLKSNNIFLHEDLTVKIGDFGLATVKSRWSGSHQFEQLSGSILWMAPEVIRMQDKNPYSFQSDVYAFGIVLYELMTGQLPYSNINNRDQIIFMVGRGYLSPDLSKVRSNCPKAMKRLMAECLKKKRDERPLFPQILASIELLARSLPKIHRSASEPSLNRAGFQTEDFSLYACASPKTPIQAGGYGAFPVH

For `COC(=O)Nc1ccc(-c2nc(N3CCOCC3)c3cnn(C4CCN(C(=O)OC)CC4)c3n2)cc1`, the kinase still bound, per cent of control (CSNK2A2 (human)) was 83%, the kinase still bound, per cent of control (BRSK1 (human)) was 95% and the kinase still bound, per cent of control (STK3 (human)) was 85%. It also gave a kinase still bound, per cent of control (PRPF4B (human)) of 100%, a kinase still bound, per cent of control [1] of 73% and a kinase still bound, per cent of control (STK4 (human)) of 100%. It also gave a kinase still bound, per cent of control (FYN (human)) of 99%, a kinase still bound, per cent of control (NUAK2 (human)) of 84% and a kinase still bound, per cent of control (VRK2 (human)) of 100%. For the same molecule, the kinase still bound, per cent of control (TNIK (human)) was 95%, the kinase still bound, per cent of control (CSNK1G3 (human)) was 100% and the kinase still bound, per cent of control (HCK (human)) was 100%. For the same molecule, the kinase still bound, per cent of control (BLK (human)) was 100%, the kinase still bound, per cent of control (RIOK3 (human)) was 100% and the kinase still bound, per cent of control [2] was 100%. For the same molecule, the kinase still bound, per cent of control (AKT2 (human)) was 100%, the per cent of control (CDK4 CCND1 (human)) was 100% and the kinase still bound, per cent of control (AAK1 (human)) was 86%. For the same molecule, the kinase still bound, per cent of control (RIOK2 (human)) was 79%, the kinase still bound, per cent of control [3] was 93% and the kinase still bound, per cent of control (MAPK10 (human)) was 100%. The kinase still bound, per cent of control (FGR (human)) was 96%, the kinase still bound, per cent of control (NEK3 (human)) was 100% and the kinase still bound, per cent of control (MAP3K13 (human)) was 100%. It also gave a kinase still bound, per cent of control (NEK7 (human)) of 77%, a kinase still bound, per cent of control (STK32A (human)) of 100% and a kinase still bound, per cent of control [4] of 100%. The kinase still bound, per cent of control (NEK9 (human)) was 98%, the kinase still bound, per cent of control (SIK2 (human)) was 100% and the kinase still bound, per cent of control (PRKAA2 (human)) was 100%. It also gave a kinase still bound, per cent of control (PRKD3 (human)) of 100%, a per cent of control (CDK18 (human)) of 100% and a kinase still bound, per cent of control (DCLK2 (human)) of 95%. It also gave a kinase still bound, per cent of control (MAP4K5 (human)) of 100%, a kinase still bound, per cent of control (BRAF (human)) of 74% and a kinase still bound, per cent of control (RPS6KA6 KD2 (human)) of 96%. The kinase still bound, per cent of control (EPHA2 (human)) was 100%, the kinase still bound, per cent of control (PAK3 (human)) was 83% and the kinase still bound, per cent of control [5] was 78%. For the same molecule, the kinase still bound, per cent of control [6] was 88% and the kinase still bound, per cent of control (TNK1 (human)) was 100%.
`CC(C)n1nc(-c2cc3cc(O)ccc3[nH]2)c2c(N)ncnc21` gave a kinase still bound, per cent of control (CSNK2A2 (human)) of 3.5%, a kinase still bound, per cent of control (BRSK1 (human)) of 1.6% and a kinase still bound, per cent of control (PRPF4B (human)) of 90%. The kinase still bound, per cent of control [1] was 0.95%, the kinase still bound, per cent of control (STK4 (human)) was 84% and the kinase still bound, per cent of control (FYN (human)) was 4.6%. The kinase still bound, per cent of control (NUAK2 (human)) was 9.2%, the kinase still bound, per cent of control (VRK2 (human)) was 100% and the kinase still bound, per cent of control (TNIK (human)) was 2.4%. The kinase still bound, per cent of control (HCK (human)) was 2.5%, the kinase still bound, per cent of control (BLK (human)) was 1.2% and the kinase still bound, per cent of control (RIOK3 (human)) was 83%. For the same molecule, the kinase still bound, per cent of control (AKT2 (human)) was 100%, the per cent of control (CDK4 CCND1 (human)) was 60% and the kinase still bound, per cent of control (AAK1 (human)) was 31%. The kinase still bound, per cent of control (RIOK2 (human)) was 38%, the kinase still bound, per cent of control [3] was 27% and the kinase still bound, per cent of control (MAPK10 (human)) was 72%. It also gave a kinase still bound, per cent of control (FGR (human)) of 5.6%, a kinase still bound, per cent of control (NEK3 (human)) of 55% and a kinase still bound, per cent of control (MAP3K13 (human)) of 100%. It also gave a kinase still bound, per cent of control (NEK7 (human)) of 100%, a kinase still bound, per cent of control (STK32A (human)) of 1.8% and a kinase still bound, per cent of control [4] of 12%. For the same molecule, the kinase still bound, per cent of control (NEK9 (human)) was 100%, the kinase still bound, per cent of control (SIK2 (human)) was 9.4% and the kinase still bound, per cent of control (PRKAA2 (human)) was 67%. It also gave a kinase still bound, per cent of control (PRKD3 (human)) of 94%, a per cent of control (CDK18 (human)) of 100% and a kinase still bound, per cent of control (DCLK2 (human)) of 100%. For the same molecule, the kinase still bound, per cent of control (MAP4K5 (human)) was 72%, the kinase still bound, per cent of control (BRAF (human)) was 5.8% and the kinase still bound, per cent of control (RPS6KA6 KD2 (human)) was 47%. The kinase still bound, per cent of control (EPHA2 (human)) was 9.4%, the kinase still bound, per cent of control (PAK3 (human)) was 59% and the kinase still bound, per cent of control [5] was 2.6%. The kinase still bound, per cent of control [6] was 81% and the kinase still bound, per cent of control (TNK1 (human)) was 34%.
